Test results published in patent publication US9139574B2, “Tumor targeted drug combretastatin A4 derivative” (Nanjing Sanhome Pharmaceutical Co., Ltd., priority 2011, dated 2015).
Read-outs that look alike come from different tables or passages of the source.

Key:
[1] = Pharmacokinetics of Compound C128 liposome in rats; format: in vivo; settings: C128 liposomes, 10 mg/kg tail vein injection, plasma, non-compartmental; for Vd: male, SD, 10 mg/kg
Experimental: C128 liposomes: (The liposome was prepared according to the conventional method in the pharmaceutical field, particle size 62.6 nm, polydispersity 0.532).
SD male rats, with average weight of 200 g.
Chromatographic conditions: LC-20A high performance liquid chromatography, SPD-20A variable wavelength UV detector (Shimadzu Corporation, Japan); C18 pre-column; mobile phase: methanol/water (65/35, v/v); flow rate 1 mL/min; detection wavelength 283 nm; column temperature 40° C.
The blood was collected from the orbital sinus of rats and centrifuged for 10 minutes at 3000 r/min, and the plasma was separated. 200 μL of the plasma was accurately sampled, and placed in 1.5 mL EP tube. 600 μL acetonitrile was added. The tube was vortexed for 3 minutes, and centrifuged for 10 minutes at 16000 r/min. 20 μL supernatant was taken for injection of HPLC determination. Chromatograms and peak area were recorded.
Blank plasma (280 μL) was accurately pipetted, and 20 μL of standard solutions of different concentrations of the drug was added to obtain the biological samples of different concentrations of the drug. The samples were treated and measured according to the aforementioned “Processing of the biological samples”. The chromatogram and the peak area were recorded. Linear regression was made by peak area A v.s concentration C (μg/mL) to obtain the standard working curve of Compound C128 in the biological samples.
Three male rats were used, and administered via tail vein injection at a dose of 10 mg/kg. The blood was taken via the orbital sinus after administration of 5 min, 15 min, 30 min, 1 h, 2 h, 4 h, 6 h, 8 h, 10 h, respectively. The samples were treated and measured according to the aforementioned “Processing of the biological samples”. The chromatogram and the peak area were recorded. The measured amount, namely, the drug concentration in plasma, was calculated by putting the peak area of the drug into the standard working curve equation.
The time curve of the drug in plasma was drawn—the area under the plasma drug concentration-time curve (AUC) was calculated by the Log trapezoidal method.

[2] = system: HCT-116; experiment: MTT assay of anti-tumor activity, HCT-116; format: cell-based; settings: Homo sapiens, HCT-116, 72 h, HCT-116 cells
Experimental: (§1) The cells were digested and counted. The cell suspension was prepared in a concentration of 5×10^4 cells/ml. 100 μL of the cell suspension per well was added into 96-well plates (5×10^3 cells per well). The 96-well plates were placed in a 5% CO2 incubator at 37° C. for 24 hours. The drugs were diluted with the complete medium to the desired concentrations. 100 μL of the corresponding drug-containing medium was added into each well. Negative control group, vehicle control group and positive control group were set. The 96-well plates were placed in 5% CO2 incubator at 37° C. for 72 hours. The 96-well plates were subjected to a MTT assay, and measured OD value at λ=490 nm. The measurement procedure comprises adding 20 μL MTT (5 mg/ml) for each well, incubating for 4 hours in an incubator, discarding the medium, dissolving by adding 150 μL DMSO into each well, mixing uniformly by rocking gently for 10 minutes on a shaker, reading OD value of each well in a microplate reader at λ=490 nm. The inhibition rate was calculated, the results were recorded, and the anti-tumor activity was assessed.

[3] = system: tubulin; experiment: Inhibitory activity on tubulin polymerization (kit BK011P, Cytoskeleton); format: biochemical; settings: 37° C., 60 minutes, fluorescence, Vmax
Experimental: The compounds were formulated into six different concentrations (0.03, 0.3, 0.9, 3, 9, 30 μM). The tubulin polymerization assay kit (Cat. # BK011P, Cytoskeleton) was used for testing. The samples were incubated at 37° C. for 60 minutes, and then fluorescence was collected using Gemini EM Fluorescence Microplate Reader collected at 410-460 nm. Vmax was calculated using SOFTMAX® PRO microplate data acquisition & analysis software. The tubulin inhibition (IC50) of the compound was calculated using GRAPHPAD PRISM® v5.01 graphing and statistics software.

[4] = system: NCI-H460; experiment: MTT assay of anti-tumor activity, NCI-H460; format: cell-based; settings: Homo sapiens, NCI-H460, 72 h, NCI-H460 cells
Experimental: as §1

[5] = system: K562; experiment: MTT assay of anti-tumor activity, K562; format: cell-based; settings: Homo sapiens, K562, 72 h, K562 cells
Experimental: as §1

[6] = system: MCF-7; experiment: MTT assay of anti-tumor activity, MCF-7; format: cell-based; settings: Homo sapiens, MCF7, 72 h, MCF-7 cells
Experimental: as §1

COc1cc(OC)cc(-c2nc[nH]c2-c2ccc(OC)c(F)c2)c1 [Compound C128, 4-(3,5-dimethoxyphenyl)-5-(3-fluoro-4-methoxyphenyl)imidazole]
AUMC0-inf—obs ([1]; SD male rats): 7.569 μg/ml*h^2
Lambda—z ([1]; SD male rats): 0.833 h⁻¹
Vd ([1]; rat, iv, read-out: Vss—obs): 1.29 L/kg
Vd ([1]; rat, iv, read-out: Vz—obs): 1.57 L/kg
AUC(0-t) ([1]; rat, iv, SD male rats): 7280 ng·h/mL
C0 ([1]; rat, iv, SD male rats): 20400 ng/mL
Cmax ([1]; rat, iv, SD male rats): 14200 ng/mL
Tmax ([1]; rat, iv, SD male rats): 4.98 min
half-life ([1]; rat, iv, SD male rats): 50 min
AUC(0-inf) ([1]; rat, iv, SD male rats, read-out: AUC0-inf—obs): 7770 ng·h/mL
clearance ([1]; rat, iv, SD male rats, read-out: Cl—obs (converted)): 21.7 mL/min/kg
MRT inf ([1]; rat, iv, SD male rats, read-out: MRT0-inf—obs): 58.9 min
IC50 [2]: 110 nM
IC50 [3]: 590 nM
IC50 [4]: 92 nM
IC50 [5]: 1.9 nM
melting point: 127.1 to 128.9 °C
IC50 [6]: 1 nM
